# Experimental data: US12415794B2 (Edgewise Therapeutics, Inc., priority 2018, dated 2025)
# Key:
# [1] = molecular target: T1, cardiac myofibrils (myosin ATPase); test: Cardiac Myofibril ATPase Assay (counter screen); type: biochemical; settings: myofibrils 1.0 mg/mL, KCl omitted
# T1 construct: frozen myofibril pellets obtained from cardiac tissue; from tissue
# Summary of the method: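 Frozen cardiac myofibrils at 1.0 mg/mL final, KCl omitted, in a PK-LDH coupled ATPase assay; ADP production tracked as NADH loss by absorbance at 340 nm. Inhibition taken as reduced rate relative to vehicle controls, with IC50 derived.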
# [2] = molecular target: skeletal myofibrils (myosin ATPase); test: Skeletal Myofibril ATPase Assay; type: biochemical
# Summary of the method: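 Skeletal myofibril ATPase measured by PK-LDH coupled NADH depletion, absorbance 340 nm read every 1.5-2 min over 45 min. Max−min rate normalized to 1% DMSO vehicle as 100%; IC50 from four-parameter logistic fit with bottom ≥0. Cardiac myofibrils used as counter-screen.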
# T1 sequence (P12883 whole entry): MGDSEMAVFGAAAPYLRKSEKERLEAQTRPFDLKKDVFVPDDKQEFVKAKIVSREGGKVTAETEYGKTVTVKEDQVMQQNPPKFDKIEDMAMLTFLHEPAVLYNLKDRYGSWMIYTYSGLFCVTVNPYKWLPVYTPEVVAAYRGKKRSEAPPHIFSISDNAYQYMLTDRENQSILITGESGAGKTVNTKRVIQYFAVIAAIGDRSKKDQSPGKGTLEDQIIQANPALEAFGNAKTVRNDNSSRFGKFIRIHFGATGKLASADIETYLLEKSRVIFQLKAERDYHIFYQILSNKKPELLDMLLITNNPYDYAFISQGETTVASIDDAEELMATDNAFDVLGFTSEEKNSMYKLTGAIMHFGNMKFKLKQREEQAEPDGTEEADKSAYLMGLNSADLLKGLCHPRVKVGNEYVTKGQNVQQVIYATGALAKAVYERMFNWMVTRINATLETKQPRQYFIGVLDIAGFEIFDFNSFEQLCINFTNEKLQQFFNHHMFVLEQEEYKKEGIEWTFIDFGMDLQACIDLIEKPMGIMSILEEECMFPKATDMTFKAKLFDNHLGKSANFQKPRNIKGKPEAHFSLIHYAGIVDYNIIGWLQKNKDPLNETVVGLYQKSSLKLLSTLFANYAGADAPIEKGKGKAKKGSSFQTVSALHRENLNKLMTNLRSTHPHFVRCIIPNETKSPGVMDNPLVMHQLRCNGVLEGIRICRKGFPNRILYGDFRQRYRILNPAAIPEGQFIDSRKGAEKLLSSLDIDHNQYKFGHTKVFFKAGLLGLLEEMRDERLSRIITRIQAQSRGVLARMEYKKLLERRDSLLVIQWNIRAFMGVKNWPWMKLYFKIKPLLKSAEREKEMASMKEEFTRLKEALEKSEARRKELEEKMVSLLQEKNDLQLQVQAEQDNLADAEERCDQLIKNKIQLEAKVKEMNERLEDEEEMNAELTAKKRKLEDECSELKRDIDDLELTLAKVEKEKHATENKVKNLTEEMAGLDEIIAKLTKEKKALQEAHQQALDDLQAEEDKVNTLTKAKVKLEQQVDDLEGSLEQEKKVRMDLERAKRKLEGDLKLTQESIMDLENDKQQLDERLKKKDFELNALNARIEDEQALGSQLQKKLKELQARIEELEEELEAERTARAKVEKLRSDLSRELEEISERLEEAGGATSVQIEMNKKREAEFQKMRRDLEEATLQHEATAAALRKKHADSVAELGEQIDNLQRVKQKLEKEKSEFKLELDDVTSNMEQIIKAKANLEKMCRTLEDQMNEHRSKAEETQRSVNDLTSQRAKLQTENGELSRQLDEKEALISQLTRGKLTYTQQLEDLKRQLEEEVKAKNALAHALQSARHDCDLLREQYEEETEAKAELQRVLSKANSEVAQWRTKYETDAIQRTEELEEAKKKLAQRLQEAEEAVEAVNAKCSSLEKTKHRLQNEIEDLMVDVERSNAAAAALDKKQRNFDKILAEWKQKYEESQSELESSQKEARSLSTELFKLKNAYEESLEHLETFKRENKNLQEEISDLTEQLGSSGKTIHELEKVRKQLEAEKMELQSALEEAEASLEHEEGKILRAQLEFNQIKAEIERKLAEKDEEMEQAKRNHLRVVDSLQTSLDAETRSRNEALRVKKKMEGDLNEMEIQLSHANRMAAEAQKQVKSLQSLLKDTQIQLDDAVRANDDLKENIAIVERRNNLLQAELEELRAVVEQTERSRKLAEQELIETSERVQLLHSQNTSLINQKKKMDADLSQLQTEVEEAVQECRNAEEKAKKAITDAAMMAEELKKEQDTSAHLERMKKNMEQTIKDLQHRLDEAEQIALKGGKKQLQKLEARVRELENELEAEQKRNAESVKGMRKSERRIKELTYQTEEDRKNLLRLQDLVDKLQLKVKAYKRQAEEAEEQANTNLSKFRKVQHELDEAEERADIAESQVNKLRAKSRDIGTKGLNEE
# T1 sequence (P08590 whole entry partner): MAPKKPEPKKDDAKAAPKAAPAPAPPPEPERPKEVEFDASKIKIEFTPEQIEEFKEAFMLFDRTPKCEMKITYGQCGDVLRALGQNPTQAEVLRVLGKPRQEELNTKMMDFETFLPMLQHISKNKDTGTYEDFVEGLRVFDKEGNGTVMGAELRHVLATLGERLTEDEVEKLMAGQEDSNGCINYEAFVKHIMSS
# T1 sequence (P10916 whole entry partner): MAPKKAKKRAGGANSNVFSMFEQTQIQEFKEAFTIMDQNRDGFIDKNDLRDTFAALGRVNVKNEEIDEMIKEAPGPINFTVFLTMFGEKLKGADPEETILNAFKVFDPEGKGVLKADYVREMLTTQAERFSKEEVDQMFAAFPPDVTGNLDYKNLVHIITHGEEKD
IC50 ([1]; Table 5C) [µM],IC50 ([2]; Table 4C) [µM],Structure (SMILES),further results
> 100,> 100,"COc1ccc(-c2ccc(=O)n(CC(=O)NCc3ccc(OC)c(OC)c3)n2)cc1 [IIIb-49, N-(3,4-dimethoxybenzyl)-2-(3-(4-methoxyphenyl)-6-oxopyridazin-1(6H)-yl)acetamide]",
> 100,< 10,"COc1ccc(-c2ccc(=O)n(CC(=O)NC(C)(C)c3ccccc3)n2)cc1 [IIIa-9, 2-(3-(4-methoxyphenyl)-6-oxopyridazin-1(6H)-yl)-N-(2-phenylpropan-2-yl)acetamide]",
> 100,10 to 100,"COc1ccc(-c2ccc(=O)n(CC(=O)NCc3cccc(F)c3)n2)cc1 [IIIb-32, N-(3-fluorobenzyl)-2-(3-(4-methoxyphenyl)-6-oxopyridazin-1(6H)-yl)acetamide]",
> 100,> 100,"COc1ccc(-c2ccc(=O)n(CC(=O)NC3CCCCC3)n2)c(F)c1 [IIIb-60, N-cyclohexyl-2-(3-(2-fluoro-4-methoxyphenyl)-6-oxopyridazin-1(6H)-yl)acetamide]",
> 100,< 10,"Cn1ccc2c(NC(=O)Cn3nc(-c4ccc(F)cc4)ccc3=O)cccc21 [IIIc-16, 2-(3-(4-fluorophenyl)-6-oxopyridazin-1(6H)-yl)-N-(1-methyl-1H-indol-4-yl)acetamide]",
> 100,10 to 100,"COc1ccc(-c2ccc(=O)n(CC(=O)NC3CC3)n2)cc1 [IIIb-22, N-cyclopropyl-2-(3-(4-methoxyphenyl)-6-oxopyridazin-1(6H)-yl)acetamide]",
> 100,> 100,"COc1ccc(-c2ccc(=O)n(CC(=O)NCc3ccc(F)cc3)n2)cc1 [IIIb-50, N-(4-fluorobenzyl)-2-(3-(4-methoxyphenyl)-6-oxopyridazin-1(6H)-yl)acetamide]",
> 100,10 to 100,"COc1ccc(-c2ccc(=O)n(CC(=O)NCc3ccccc3Cl)n2)cc1F [IIIa-24, N-(2-chlorobenzyl)-2-(3-(3-fluoro-4-methoxyphenyl)-6-oxopyridazin-1(6H)-yl)acetamide]",
> 100,> 100,"COc1ccc(-c2ccc(=O)n(CC(=O)NCc3ccno3)n2)cc1 [IIIa-34, N-(isoxazol-5-ylmethyl)-2-(3-(4-methoxyphenyl)-6-oxopyridazin-1(6H)-yl)acetamide]",

# Second part, the molecule before the results:
Structure (SMILES),IC50 ([1]; Table 5C) [µM],IC50 ([2]; Table 4C) [µM],further results
"O=C(Cn1nc(-c2ccc(Cl)cc2)ccc1=O)Nc1ccccc1F [IIIc-27, 2-(3-(4-chlorophenyl)-6-oxopyridazin-1(6H)-yl)-N-(2-fluorophenyl)acetamide]",> 100,10 to 100,
"COc1ccc(-c2ccc(=O)n(CC(=O)Nc3ccc(Cl)cc3Cl)n2)cc1 [IIIb-11, N-(2,4-dichlorophenyl)-2-(3-(4-methoxyphenyl)-6-oxopyridazin-1(6H)-yl)acetamide]",> 100,< 10,
"COc1ccc(-c2ccc(=O)n(CC(=O)NCCc3ccc(OC)c(OC)c3)n2)cc1 [IIIb-51, N-(3,4-dimethoxyphenethyl)-2-(3-(4-methoxyphenyl)-6-oxopyridazin-1(6H)-yl)acetamide]",> 100,> 100,
"O=C(Cn1nc(-c2ccc(OC(F)F)cc2)ccc1=O)NC1CCC1 [II-9, N-cyclobutyl-2-(3-(4-(difluoromethoxy)phenyl)-6-oxopyridazin-1(6H)-yl)acetamide]",,,IC50 ([1]; Table 5B): > 100 µM; IC50 ([2]; Table 4B): < 10 µM
"C[C@H](NC(=O)Cn1nc(-c2ccc(OC(F)F)nc2)ccc1=O)c1ccnn1C [Compound I-29, (S)-2-(3-(6-(difluoromethoxy)pyridin-3-yl)-6-oxopyridazin-1(6H)-yl)-N-(1-(1-methyl-1H-pyrazol-5-yl)ethyl)acetamide]",,,IC50 ([1]; Table 5A): > 100 µM; IC50 ([2]; Table 4A): > 100 µM
"CCNC(=O)Cn1nc(-c2ccc(OCC3COC3)nc2)ccc1=O [Compound I-22, N-ethyl-2-(3-(6-(oxetan-3-ylmethoxy)pyridin-3-yl)-6-oxopyridazin-1(6H)-yl)acetamide]",,,IC50 ([1]; Table 5A): > 100 µM; IC50 ([2]; Table 4A): 10 to 100 µM
"COc1ccc(-c2ccc(=O)n(CC(=O)NC(C)C)n2)c(F)c1 [IIIb-19, 2-(3-(2-fluoro-4-methoxyphenyl)-6-oxopyridazin-1(6H)-yl)-N-isopropylacetamide]",> 100,10 to 100,
"CC[C@H](C)NC(=O)Cn1nc(-c2ccc(C)cc2)ccc1=O [IIIc-2, (S)-N-(sec-butyl)-2-(6-oxo-3-(p-tolyl)pyridazin-1(6H)-yl)acetamide]",> 100,< 10,
"CCOc1ccc(-c2ccc(=O)n(CC(=O)NC(C)C)n2)cc1 [IIIa-6, 2-(3-(4-ethoxyphenyl)-6-oxopyridazin-1(6H)-yl)-N-isopropylacetamide]",> 100,< 10,
"CC(C)CNC(=O)Cn1nc(-c2ccc(OC(F)F)cc2)ccc1=O [II-13, 2-(3-(4-(difluoromethoxy)phenyl)-6-oxopyridazin-1(6H)-yl)-N-isobutylacetamide]",,,IC50 ([1]; Table 5B): > 100 µM; IC50 ([2]; Table 4B): 10 to 100 µM
"COc1ccc(-c2ccc(=O)n(CC(=O)NCC3CCOCC3)n2)cc1 [IIIa-29, 2-(3-(4-methoxyphenyl)-6-oxopyridazin-1(6H)-yl)-N-((tetrahydro-2H-pyran-4-yl)methyl) acetamide]",> 100,> 100,
"COc1ccc(-c2ccc(=O)n(CC(=O)NCc3ccccc3F)n2)cc1 [IIIb-38, N-(2-fluorobenzyl)-2-(3-(4-methoxyphenyl)-6-oxopyridazin-1(6H)-yl)acetamide]",> 100,> 100,
"CCNC(=O)Cn1nc(-c2cnc(NC34CC(F)(C3)C4)nc2)ccc1=O [Compound I-57, N-ethyl-2-(3-(2-((3-fluorobicyclo[1.1.1]pentan-1-yl)amino)pyrimidin-5-yl)-6-oxopyridazin-1(6H)-yl)acetamide]",,,IC50 ([1]; Table 5A): > 100 µM; IC50 ([2]; Table 4A): < 10 µM
"COc1ccc(-c2ccc(=O)n(CC(=O)Nc3ncccc3C)n2)cc1 [IIIb-27, 2-(3-(4-methoxyphenyl)-6-oxopyridazin-1(6H)-yl)-N-(3-methylpyridin-2-yl)acetamide]",> 100,10 to 100,
"CCNC(=O)Cn1nc(-c2ccc(NC34CC(C3)C4)nc2)ccc1=O [Compound I-36, 2-(3-(6-(bicyclo[1.1.1]pentan-1-ylamino)pyridin-3-yl)-6-oxopyridazin-1(6H)-yl)-N-ethylacetamide]",,,IC50 ([1]; Table 5A): > 100 µM; IC50 ([2]; Table 4A): < 10 µM
"COc1ccc(-c2ccc(=O)n(CC(=O)NCCc3ccccc3)n2)c(F)c1 [IIIb-9, 2-(3-(2-fluoro-4-methoxyphenyl)-6-oxopyridazin-1(6H)-yl)-N-phenethylacetamide]",> 100,< 10,
CC(C)NC(=O)Cn1nc(-c2ccc(OC(F)(F)F)cc2)ccc1=O [II-4],,,IC50 ([1]; Table 5B): > 100 µM; IC50 ([2]; Table 4B): < 10 µM
"O=C(Cn1nc(-c2ccccc2)ccc1=O)NC1(c2ccccc2)CCC1 [IIIc-51, 2-(6-oxo-3-phenylpyridazin-1(6H)-yl)-N-(1-phenylcyclobutyl)acetamide]",> 100,< 10,
"CCNC(=O)Cn1nc(-c2ccc(NC3CCC3)nc2)ccc1=O [Compound I-62, 2-(3-(6-(cyclobutylamino)pyridin-3-yl)-6-oxopyridazin-1(6H)-yl)-N-ethylacetamide]",,,IC50 ([1]; Table 5A): > 100 µM; IC50 ([2]; Table 4A): < 10 µM
"CCNC(=O)Cn1nc(-c2ccc(OC(C)(F)F)cc2)ccc1=O [II-1, 2-(3-(4-(1,1-difluoroethoxy)phenyl)-6-oxopyridazin-1(6H)-yl)-N-ethylacetamide]",,,IC50 ([1]; Table 5B): 10 to 100 µM; IC50 ([2]; Table 4B): < 10 µM
"O=C(Cn1nc(-c2ccccc2)ccc1=O)Nc1cccc2[nH]ccc12 [IIIc-50, N-(1H-indol-4-yl)-2-(6-oxo-3-phenylpyridazin-1(6H)-yl)acetamide]",> 100,10 to 100,
"CCNC(=O)Cn1nc(-c2ccc(OC(F)F)cc2)c(C)cc1=O [II-19, 2-(3-(4-(difluoromethoxy)phenyl)-4-methyl-6-oxopyridazin-1(6H)-yl)-N-ethylacetamide]",,,IC50 ([1]; Table 5B): > 100 µM; IC50 ([2]; Table 4B): 10 to 100 µM
"CC(=O)Nc1ccc(-c2ccc(=O)n(CC(=O)NC(C)C)n2)cc1 [II-14, 2-(3-(4-acetamidophenyl)-6-oxopyridazin-1(6H)-yl)-N-isopropylacetamide]",,,IC50 ([1]; Table 5B): > 100 µM; IC50 ([2]; Table 4B): 10 to 100 µM
"COc1ccc(-c2ccc(=O)n(CC(=O)NCc3ccccc3Cl)n2)cc1OC [IIIb-40, N-(2-chlorobenzyl)-2-(3-(3,4-dimethoxyphenyl)-6-oxopyridazin-1(6H)-yl)acetamide]",> 100,> 100,
"O=C(Cn1nc(-c2ccc3c(c2)OCCO3)ccc1=O)Nc1ccccc1F [IIIb-17, 2-(3-(2,3-dihydrobenzo[b][1,4]dioxin-6-yl)-6-oxopyridazin-1(6H)-yl)-N-(2-fluorophenyl)acetamide]",> 100,< 10,
"O=C(Cn1nc(-c2ccc(NC34CC(C3)C4)nc2)ccc1=O)NC1CCC1 [Compound I-54, 2-(3-(6-(bicyclo[1.1.1]pentan-1-ylamino)pyridin-3-yl)-6-oxopyridazin-1(6H)-yl)-N-cyclobutylacetamide]",,,IC50 ([1]; Table 5A): > 100 µM; IC50 ([2]; Table 4A): < 10 µM
"CCNC(=O)Cn1nc(-c2cnc(Oc3ccc(Cl)cc3)nc2)ccc1=O [Compound I-78, 2-(3-(2-(4-chlorophenoxy)pyrimidin-5-yl)-6-oxopyridazin-1(6H)-yl)-N-ethylacetamide]",,,IC50 ([1]; Table 5A): > 100 µM; IC50 ([2]; Table 4A): 10 to 100 µM
"CCNC(=O)Cn1nc(-c2ccc(OCC3(C)COC3)nc2)ccc1=O [Compound I-24, N-ethyl-2-(3-(6-((3-methyloxetan-3-yl)methoxy)pyridin-3-yl)-6-oxopyridazin-1(6H)-yl)acetamide]",,,IC50 ([1]; Table 5A): > 100 µM; IC50 ([2]; Table 4A): 10 to 100 µM
"CCNC(=O)Cn1nc(-c2ccc(OC(F)F)nc2)ccc1=O [Compound I-7, 2-(3-(6-(difluoromethoxy)pyridin-3-yl)-6-oxopyridazin-1(6H)-yl)-N-ethylacetamide]",,,IC50 ([1]; Table 5A): > 100 µM; IC50 ([2]; Table 4A): < 10 µM
